Reference: PubChem BioAssay AID266 (DTP/NCI, 2004)
Several values for one entry are separate records, joined by “and”; a condition that tells them apart may be missing. Equal entries are not always repeated. Inconclusive results are not listed.

System: Nude mice, LX-1 lung xenograft intrarenal, tumor weight T/C
Experiment: NCI In Vivo Anticancer Drug Screen. Data for tumor model Human Lung LX-1 Xenograft (intrarenal inoculation) in NU/NU BALB/C (nude) mice
Details: endpoint: mean tumor weight change, higher = larger tumour
Experimental: The antitumor activity of compounds was measured in mice bearing transplantable tumors. Survival or tumor size were measured and the results are expressed as the measurement made in the treated group (T) divided by the measurement made in the vehicle treated control group (C). The tumor model used in this assay is Human Lung LX-1 Xenograft (intrarenal inoculation) in NU/NU BALB/C (nude) mice

With `COc1cccc2c1C(=O)c1c(O)c3c(c(O)c1C2=O)C[C@@](O)(/C(C)=N\O)C[C@@H]3OC1CC(N)C(O)C(C)O1` (stereo partly drawn) the T/C (dose: 25.0 mg/kg/injection, schedule: Q04DX003 (sc), vehicle: saline) was 87 % of control, the T/C (dose: 50.0 mg/kg/injection, schedule: Q04DX003 (sc), vehicle: saline) was 65 % of control and 76 % of control and the T/C (dose: 100.0 mg/kg/injection, schedule: Q04DX003 (sc), vehicle: saline) was 17 % of control and 18 % of control.
For `CN=NN(C)C(=O)NC`, the T/C (dose: 6.25 mg/kg/injection, schedule: Q04DX003 (ip), vehicle: saline) was 71 % of control and 82 % of control, the T/C (dose: 12.5 mg/kg/injection, schedule: Q04DX003 (ip), vehicle: saline) was 28 % of control and 45 % of control and the T/C (dose: 25.0 mg/kg/injection, schedule: Q04DX003 (ip), vehicle: saline) was 6 % of control. For the same compound, the T/C (dose: 50.0 mg/kg/injection, schedule: Q04DX003 (ip), vehicle: saline) was -34 % of control and -18 % of control, the T/C (dose: 108.0 mg/kg/injection, schedule: Q04DX003 (ip), vehicle: saline) was 5 % of control and the T/C (dose: 180.0 mg/kg/injection, schedule: Q04DX003 (ip), vehicle: saline) was 4 % of control.
With `O=NN(CCCl)C(=O)NCCO` the T/C (dose: 3.13 mg/kg/injection, schedule: Q04DX003 (sc), vehicle: water) was 113 % of control, the T/C (dose: 6.25 mg/kg/injection, schedule: Q04DX003 (sc), vehicle: water) was 26 % of control and the T/C (dose: 12.5 mg/kg/injection, schedule: Q04DX003 (sc), vehicle: water) was -25 % of control.
With `CS(C)=O` the T/C (dose: 750.0 mg/kg/injection, schedule: Q01DX010 (sc), vehicle: saline) was 88 % of control and the T/C (dose: 6000.0 mg/kg/injection, schedule: Q01DX010 (sc), vehicle: saline) was 67 % of control.
`CCC1CCCCN1C(=S)N/N=C(\C)c1ccccn1` (stereo not drawn) was tested, and the T/C (dose: 18.75 mg/kg/injection, schedule: Q04DX003 (sc), vehicle: saline with Tween-80) was 100 % of control, the T/C (dose: 37.5 mg/kg/injection, schedule: Q04DX003 (sc), vehicle: saline with Tween-80) was 83 % of control and the T/C (dose: 75.0 mg/kg/injection, schedule: Q04DX003 (sc), vehicle: saline with Tween-80) was 81 % of control.
`CCCNC1=C(C)C(=O)C2=C(C1=O)[C@H](COC(N)=O)[C@]1(OC)[C@@H]3N[C@@H]3CN21` was tested, and the T/C (dose: 12.0 mg/kg/injection, schedule: Q04DX003 (sc), vehicle: saline + alcohol) was 52 % of control and the T/C (dose: 24.0 mg/kg/injection, schedule: Q04DX003 (sc), vehicle: saline + alcohol) was 8 % of control.
`CC1=C2CC(C)(C)/C=C\C(=O)/C(C)=C\C3=C[C@H](C)C[C@]3(O2)C1=O` was tested, and the T/C (dose: 6.0 mg/kg/injection, schedule: Q01DX010 (sc), vehicle: Klucel (hydroxypropylcellulose) (HPC)) was 81 % of control, the T/C (dose: 12.0 mg/kg/injection, schedule: Q01DX010 (sc), vehicle: Klucel (hydroxypropylcellulose) (HPC)) was 168 % of control and the T/C (dose: 24.0 mg/kg/injection, schedule: Q01DX010 (sc), vehicle: Klucel (hydroxypropylcellulose) (HPC)) was 236 % of control. For the same compound, the T/C (dose: 50.0 mg/kg/injection, schedule: Q01DX010 (sc), vehicle: Klucel (hydroxypropylcellulose) (HPC)) was 33 % of control.
With `CC(=O)OCC1(C)NC(=O)c2ccccc2O1` (stereo not drawn) the T/C (dose: 300.0 mg/kg/injection, schedule: Q04DX003 (sc), vehicle: saline with Tween-80) was 86 % of control and the T/C (dose: 1200.0 mg/kg/injection, schedule: Q04DX003 (sc), vehicle: saline with Tween-80) was 91 % of control.
For `Cc1ccc(S(=O)(=O)NC(=O)C2C(=O)CC3(CCCCC3)CC2=O)cc1`, the T/C (dose: 300.0 mg/kg/injection, schedule: Q04DX003 (sc), vehicle: Klucel (hydroxypropylcellulose) (HPC)) was 122 % of control, the T/C (dose: 600.0 mg/kg/injection, schedule: Q04DX003 (sc), vehicle: Klucel (hydroxypropylcellulose) (HPC)) was 101 % of control and the T/C (dose: 2400.0 mg/kg/injection, schedule: Q04DX003 (sc), vehicle: Klucel (hydroxypropylcellulose) (HPC)) was 84 % of control.
